The values below come from patent US10029984B2, “Mono- or di-substituted indole derivatives as dengue viral replication inhibitors” (Janssen Pharmaceuticals, Inc., priority 2015, dated 2018).

Molecules are shown by their SMILES.

The subject of one data set is DENV-1 strain TC974#666. Kind of data set: Tetravalent RT-qPCR assay Protocol A, serotype 1. It counts as cell-based. The conditions noted are these: Dengue virus, DENV1, 72 h; RT-qPCR serotype 1 TC974#666, Vero cells, day 3. As to the method:
The antiviral activity of the compounds of the invention was tested against DENV-1 strain TC974#666 (NCPV; Table 6), DENV-2 strain 16681 (Table 7), DENV-3 strain H87 (NCPV; Table 8) and DENV-4 strains H241 (NCPV; Table 9) in a RT-qPCR assay. Therefore, Vero cells were infected with either DENV-1, or -2, or -3, or -4 in the presence or absence of test compounds. At day 3 post-infection, the cells were lysed and cell lysates were used to prepare cDNA of both a viral target (the 3′UTR of DENV; table 2) and a cellular reference gene (β-actin, table 2). Subsequently, a duplex real time PCR was performed on a Lightcycler480 instrument. The generated Cp value is inversely proportional to the amount of RNA expression of these targets. Inhibition of DENV replication by a test compound result in a shift of Cp's for the 3′UTR gene. On the other hand, if a test compound is toxic to the cells, a similar effect on β-actin expression will be observed. The comparative ΔΔCp method is used to calculate EC50, which is based on the relative gene expression of the target gene (3′UTR) normalized with the cellular housekeeping gene (β-actin).
The culture medium consisted of minimal essential medium supplemented with 2% of heat-inactivated fetal calf serum, 0.04% gentamycin (50 mg/mL) and 2 mM of L-glutamine. Vero cells, obtained from ECACC, were suspended in culture medium and 75 μL/well was added in 96-well plates (10000 cells/well), which already contain the antiviral compounds. Typically, these plates contain a 4-fold serial dilution of 9 dilution steps of the test compound at 200 times the final concentration in 100% DMSO (500 nL; final concentration range: 25 μM-0.00038 μM). In addition, each plate contains wells which are assigned as virus controls (containing cells and virus in the absence of compound) and cell controls (containing cells in the absence of virus and compound). Once the cells were added in the plates, the plates were incubated in a fully humidified incubator (37° C., 5% CO2) until the next day. Then, DENV-1 strain TC974#666 at an MOI of 0.6, DENV-2 strain 16681 at an MOI of 0.01, DENV-3 strain H87 at an MOI of 1.0 and DENV-4 strains H241 at an MOI of 0.2 and SG/06K2270DK1/2005 at an MOI of 0.16, were added. Therefore, 25 μL of virus suspension was added to all the wells containing test compound and to the wells assigned as virus control. In parallel, 25 μL of culture medium was added to the cell controls. Next, the plates were incubated for 3 days in a fully humidified incubator (37° C., 5% CO2). After 3 days, the supernatant was removed from the wells and the cells were washed twice with ice-cold PBS (˜100 μL). The cell pellets within the 96-well plates were stored at −80° C. for at least 1 day. Next, RNA was extracted using the Cells-to-CT™ lysis kit, according to the manufacture's guideline (Applied Biosystems). The cell lysates can be stored at −80° C. or immediately used in the reverse transcription step.
In preparation of the reverse transcription step, mix A (table 3A) was prepared and 7.57 μL/well was dispensed in a 96-well plate. After addition of 5 μL of the cell lysates, a five minute denaturation step at 75° C. was performed (table 3B). Afterwards, 7.43 μL of mix B was added (table 3C) and the reverse transcription step was initiated (table 3D) to generate cDNA.
Finally, a RT-qPCR mix was prepared, mix C (table 4A), dispensed in 96-well LightCycler qPCR plates to which 3 μL of cDNA was added and the qPCR was performed according to the conditions in table 4B on a LightCycler 480. Using the LightCycler software and an in-house LIMS system, dose response curves for each compound were calculated and the half maximal effective concentration (EC50) and the half maximal cytotoxic concentration (CC50) were determined.
A general note: In qPCR the cycle at which signal appears reflects the starting amount.

The next data set concerns Vero cells. In words: in vitro. Type of data set: cell-based. The conditions noted are these: African green monkey. Summed up:
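On the same plates after eGFP read-out, resazurin was added and cells incubated a further 5 h at 37 °C, 5% CO2; resorufin fluorescence read with 530 nm excitation. CC50 is the concentration halving resazurin conversion versus cell control; SI = CC50/EC50.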

Data set [1] can be described thus: Chiral stability at pH 7.4 (enantiomeric excess by Chiral SFC after incubation). Type of data set: physicochemical. Particulars: buffered solution pH 7.4, 5 μM. As to the method: The chiral stability of Enantiomer 10B (R=OMe) was evaluated by determination of the enantiomeric excess (ee %) after incubation for 24 h and 48 h in a buffered solution at pH 7.4 at 40° C. and 60° C. To assess the influence of the methoxy-substituent of Enantiomer 10B (R=OMe) on the stability against racemization, the chiral stability of Enantiomer 10′B (R=H) was tested under the same conditions. To this end, 5 μM buffered (pH=7.4) solutions of 10B and 10′B were prepared by mixing 25 μL of a 100 μM solution of 10B and 10′B in DMSO with 475 μL aqueous buffer pH 7.4. Samples were taken 24 h and 48 h after incubation at 40° C. and 60° C. The analytical samples were analyzed by Chiral SFC (MS detection) and the chiral purity was expressed as the enantiomeric excess (ee %=% enantiomer B−% enantiomer A).

As a reminder, the EC50 is the concentration giving half of the maximal effect. For orientation: CC50 means the concentration giving 50% cytotoxicity. For `COc1cc(NC(C(=O)c2c[nH]c3cc(OC)c(C)cc23)c2ccc(F)cc2OC)cc(S(C)(=O)=O)c1` (single isomer, unassigned) [Enantiomer 10B, 2-(4-fluoro-2-methoxyphenyl)-2-((3-methoxy-5-(methylsulfonyl)phenyl)amino)-1-(6-methoxy-5-methyl-1H-indol-3-yl)ethanone], in the data set with DENV-1 strain TC974#666, the EC50 was determined as 0.00446 µM. Also, the CC50 in the data set on Vero cells is 4.5 µM. The ee % in data set [1] (40° C., 24 h) worked out at 100%; in data set [1] (40° C., 48 h), 100%; in data set [1] (60° C., 24 h) it was 97%; in data set [1] (60° C., 48 h), 97%.
